Measured values taken from PubChem BioAssay AID248 (DTP/NCI, 2004).
Values joined by “and” are separate entries in the source; they are usually repeats but may differ in a detail not shown here. Equal entries are not always repeated. Inconclusive results and toxic doses are left out.

System: L1210 leukemia ip in BDF1 mice, survival T/C
Test: NCI In Vivo Anticancer Drug Screen. Data for tumor model L1210 Leukemia (intraperitoneal) in B6D2F1 (BDF1) mice
Conditions: higher = longer survival
Method in brief: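 Ratio derived from survival: compound-dosed mice over vehicle-dosed mice, all bearing a transplantable tumor.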

[1] = endpoint: mean survival time, dose: 100.0 mg/kg/injection, schedule: Q01DX001 (ip), vehicle: carboxymethylcellulose (CMC)
[2] = endpoint: mean survival time, dose: 50.0 mg/kg/injection, schedule: Q01DX001 (ip), vehicle: saline
[3] = endpoint: mean survival time, dose: 100.0 mg/kg/injection, schedule: Q01DX001 (ip), vehicle: saline
[4] = endpoint: mean survival time, dose: 200.0 mg/kg/injection, schedule: Q01DX001 (ip), vehicle: saline
[5] = endpoint: mean survival time, dose: 400.0 mg/kg/injection, schedule: Q01DX001 (ip), vehicle: saline
[6] = endpoint: mean survival time, dose: 100.0 mg/kg/injection, schedule: Q04DX003 (ip), vehicle: saline
[7] = endpoint: mean survival time, dose: 200.0 mg/kg/injection, schedule: Q04DX003 (ip), vehicle: saline
[8] = endpoint: mean survival time, dose: 400.0 mg/kg/injection, schedule: Q04DX003 (ip), vehicle: saline
[9] = endpoint: mean survival time, dose: 100.0 mg/kg/injection, schedule: Q04DX003 (ip), vehicle: Klucel (hydroxypropylcellulose) (HPC)
[10] = endpoint: mean survival time, dose: 400.0 mg/kg/injection, schedule: Q04DX003 (ip), vehicle: Klucel (hydroxypropylcellulose) (HPC)
[11] = endpoint: mean survival time, dose: 100.0 mg/kg/injection, schedule: Q04DX003 (ip), vehicle: saline with Tween-80
[12] = endpoint: mean survival time, dose: 200.0 mg/kg/injection, schedule: Q04DX003 (ip), vehicle: saline with Tween-80
[13] = endpoint: mean survival time, dose: 400.0 mg/kg/injection, schedule: Q04DX003 (ip), vehicle: saline with Tween-80
[14] = endpoint: mean survival time, dose: 100.0 mg/kg/injection, schedule: Q01DX009 (ip), vehicle: saline
[15] = endpoint: mean survival time, dose: 400.0 mg/kg/injection, schedule: Q01DX009 (ip), vehicle: saline

CC(=O)c1cccc(NC2C(N)C(NC(=O)N(C)C)(C(C)O)C(C)(O)C2(O)COC(=O)c2c(C)cccc2O)c1 (stereo not drawn)
T/C (endpoint: mean survival time, dose: 0.25 mg/kg/injection, schedule: Q01DX Z (ip), vehicle: saline): 98 % of control | T/C (endpoint: mean survival time, dose: 0.5 mg/kg/injection, schedule: Q01DX Z (ip), vehicle: saline): 98 % of control | T/C (endpoint: mean survival time, dose: 0.7 mg/kg/injection, schedule: Q01DX015 (ip), vehicle: carboxymethylcellulose (CMC)): 111 % of control | T/C (endpoint: mean survival time, dose: 1.0 mg/kg/injection, schedule: Q01DX Z (ip), vehicle: saline): 113 % of control | T/C (endpoint: mean survival time, dose: 1.5 mg/kg/injection, schedule: Q01DX015 (ip), vehicle: carboxymethylcellulose (CMC)): 122 % of control | T/C (endpoint: mean survival time, dose: 2.0 mg/kg/injection, schedule: Q01DX Z (ip), vehicle: saline): 117 % of control | T/C (endpoint: mean survival time, dose: 3.0 mg/kg/injection, schedule: Q01DX001 (ip), vehicle: carboxymethylcellulose (CMC)): 104 % of control | T/C (endpoint: mean survival time, dose: 3.0 mg/kg/injection, schedule: Q01DX015 (ip), vehicle: carboxymethylcellulose (CMC)): 90 % of control | T/C (endpoint: mean survival time, dose: 6.0 mg/kg/injection, schedule: Q01DX001 (ip), vehicle: carboxymethylcellulose (CMC)): 107 % of control | T/C (endpoint: mean survival time, dose: 12.0 mg/kg/injection, schedule: Q01DX001 (ip), vehicle: carboxymethylcellulose (CMC)): 107 % of control | T/C (endpoint: mean survival time, dose: 25.0 mg/kg/injection, schedule: Q01DX001 (ip), vehicle: carboxymethylcellulose (CMC)): 112 % of control | T/C (endpoint: mean survival time, dose: 50.0 mg/kg/injection, schedule: Q01DX001 (ip), vehicle: carboxymethylcellulose (CMC)): 112 % of control | T/C [1]: 114 % of control | T/C (endpoint: median survival time, dose: 2.0 mg/kg/injection, schedule: Q04DX003 (ip), vehicle: acid diluted with saline): 103 % of control | T/C (endpoint: median survival time, dose: 4.0 mg/kg/injection, schedule: Q04DX003 (ip), vehicle: acid diluted with saline): 103 % of control | T/C (endpoint: median survival time, dose: 8.0 mg/kg/injection, schedule: Q04DX003 (ip), vehicle: acid diluted with saline): 103 % of control | T/C (endpoint: median survival time, dose: 16.0 mg/kg/injection, schedule: Q04DX003 (ip), vehicle: acid diluted with saline): 112 % of control

O=C(O)C12CCC1(Cl)CC2 (stereo not drawn)
T/C (endpoint: mean survival time, dose: 50.0 mg/kg/injection, schedule: Q04DX002 (ip), vehicle: Klucel (hydroxypropylcellulose) (HPC)): 104 % of control | T/C (endpoint: mean survival time, dose: 100.0 mg/kg/injection, schedule: Q04DX002 (ip), vehicle: Klucel (hydroxypropylcellulose) (HPC)): 97 % of control | T/C (endpoint: mean survival time, dose: 200.0 mg/kg/injection, schedule: Q04DX002 (ip), vehicle: Klucel (hydroxypropylcellulose) (HPC)): 108 % of control

O=C1c2cc([N+](=O)[O-])ccc2NC1(c1c[nH]c2ccccc12)c1c[nH]c2ccc(Br)cc12 (stereo not drawn)
T/C [2]: 96 % of control | T/C [3]: 96 % of control | T/C [4]: 96 % of control | T/C [5]: 93 % of control

CC(=O)NC1C(OCc2ccccc2)OC(COCc2ccccc2)C(OCc2ccccc2)C1OCc1ccccc1 (stereo not drawn)
T/C (endpoint: mean survival time, dose: 100.0 mg/kg/injection, schedule: Q01DX001 (ip), vehicle: saline with Tween-80): 86 % of control | T/C (endpoint: mean survival time, dose: 200.0 mg/kg/injection, schedule: Q01DX001 (ip), vehicle: saline with Tween-80): 94 % of control | T/C (endpoint: mean survival time, dose: 400.0 mg/kg/injection, schedule: Q01DX001 (ip), vehicle: saline with Tween-80): 94 % of control

CC1Cc2c(ccc3ccccc23)C1=O (stereo not drawn)
T/C [3]: 98 % of control | T/C [6]: 94 % of control | T/C [4]: 97 % of control | T/C [7]: 94 % of control | T/C [5]: 101 % of control | T/C [8]: 95 % of control

CCN(C(=O)N(CCCl)N=O)C1CCCCC1
T/C (endpoint: mean survival time, dose: 75.0 mg/kg/injection, schedule: Q01DX001 (ip), vehicle: saline): 97 % of control

CC(C)=NNc1ccnc(SCc2ccccc2)n1
T/C [9]: 96 % of control | T/C (endpoint: mean survival time, dose: 200.0 mg/kg/injection, schedule: Q04DX003 (ip), vehicle: Klucel (hydroxypropylcellulose) (HPC)): 97 % of control | T/C [10]: 102 % of control

O=C1C(c2ccc(O)cc2)C2C=CC(C2)N1O (stereo not drawn)
T/C [3]: 95 % of control | T/C [4]: 103 % of control | T/C [5]: 95 % of control

CC(=O)c1ccc(N=Nc2c(N)nc(N)nc2N)cc1
T/C [3]: 94 % of control | T/C [4]: 94 % of control | T/C [5]: 94 % of control

COS(=O)(=O)CCC[n+]1ccccc1
T/C [2]: 98 % of control | T/C [3]: 96 % of control | T/C [4]: 96 % of control

CCC(C)N (stereo not drawn)
T/C [6]: 95 % of control | T/C [7]: 95 % of control

CC1(O)C(c2ccccc2)=Nc2ccccc21 (stereo not drawn)
T/C (endpoint: mean survival time, dose: 100.0 mg/kg/injection, schedule: Q04DX002 (ip), vehicle: saline with Tween-80): 95 % of control | T/C (endpoint: mean survival time, dose: 200.0 mg/kg/injection, schedule: Q04DX002 (ip), vehicle: saline with Tween-80): 113 % of control | T/C (endpoint: mean survival time, dose: 400.0 mg/kg/injection, schedule: Q04DX002 (ip), vehicle: saline with Tween-80): 92 % of control

O=C(c1ccccn1)C12CC3CC(CC(C3)C1)C2
T/C [11]: 97 % of control | T/C [12]: 98 % of control | T/C [13]: 101 % of control

CCC1(C)CCC2(C)C(CCC3C(C)(CO)CCCC32O)C1 (stereo not drawn)
T/C (endpoint: mean survival time, dose: 12.5 mg/kg/injection, schedule: Q04DX002 (ip), vehicle: saline with Tween-80): 96 % of control | T/C (endpoint: mean survival time, dose: 25.0 mg/kg/injection, schedule: Q04DX002 (ip), vehicle: saline with Tween-80): 96 % of control | T/C (endpoint: mean survival time, dose: 50.0 mg/kg/injection, schedule: Q04DX002 (ip), vehicle: saline with Tween-80): 96 % of control

COC1OC(CO)C(O)C(NC(=O)N(C)N=O)C1O (stereo not drawn)
T/C (endpoint: mean survival time, dose: 12.5 mg/kg/injection, schedule: Q01DX009 (ip), vehicle: saline): 112 % of control | T/C (endpoint: mean survival time, dose: 25.0 mg/kg/injection, schedule: Q04DX003 (ip), vehicle: saline): 106 % of control | T/C (endpoint: mean survival time, dose: 44.0 mg/kg/injection, schedule: Q01DX009 (ip), vehicle: saline): 124 % of control | T/C (endpoint: mean survival time, dose: 50.0 mg/kg/injection, schedule: Q01DX009 (ip), vehicle: saline): 181 % of control | T/C (endpoint: mean survival time, dose: 50.0 mg/kg/injection, schedule: Q04DX003 (ip), vehicle: saline): 105 % of control | T/C (endpoint: mean survival time, dose: 66.0 mg/kg/injection, schedule: Q04DX003 (ip), vehicle: saline): 100 % of control | T/C [14]: 103 % of control and 218 % of control | T/C [9]: 119 % of control | T/C [6]: 158 % of control | T/C (endpoint: mean survival time, dose: 150.0 mg/kg/injection, schedule: Q04DX003 (ip), vehicle: saline): 105 % of control | T/C [7]: 166 % of control | T/C [15]: 100 % of control | T/C [10]: 171 % of control | T/C [8]: 100 % of control and 214 % of control

CCCCOP(=O)(Nc1ccccc1)OCCCC
T/C (endpoint: mean survival time, dose: 100.0 mg/kg/injection, schedule: Q04DX002 (sc), vehicle: olive oil, sesame oil, peanut oil): 103 % of control | T/C (endpoint: mean survival time, dose: 200.0 mg/kg/injection, schedule: Q04DX002 (sc), vehicle: olive oil, sesame oil, peanut oil): 103 % of control | T/C (endpoint: mean survival time, dose: 400.0 mg/kg/injection, schedule: Q04DX002 (sc), vehicle: olive oil, sesame oil, peanut oil): 90 % of control

CN(C)CCSSCCN(C)C
T/C [2]: 102 % of control | T/C [3]: 104 % of control | T/C [4]: 96 % of control

C/C(=C1/c2ccccc2-c2n[nH]c(C)c21)S(=O)(=O)O
T/C (endpoint: mean survival time, dose: 100.0 mg/kg/injection, schedule: Q01DX009 (ip), vehicle: saline with Tween-80): 95 % of control | T/C [11]: 94 % of control | T/C (endpoint: mean survival time, dose: 200.0 mg/kg/injection, schedule: Q01DX009 (ip), vehicle: saline with Tween-80): 88 % of control | T/C [12]: 105 % of control | T/C (endpoint: mean survival time, dose: 400.0 mg/kg/injection, schedule: Q01DX009 (ip), vehicle: saline with Tween-80): 95 % of control | T/C [13]: 91 % of control

CCCCCCCCCCCCCCCc1ccc2c3c(cccc13)C=C2
T/C [1]: 92 % of control | T/C (endpoint: mean survival time, dose: 200.0 mg/kg/injection, schedule: Q01DX001 (ip), vehicle: carboxymethylcellulose (CMC)): 92 % of control | T/C (endpoint: mean survival time, dose: 400.0 mg/kg/injection, schedule: Q01DX001 (ip), vehicle: carboxymethylcellulose (CMC)): 90 % of control

O=NN(CCCl)C(=O)Nc1cccc(C(=O)O)c1
T/C (endpoint: mean survival time, dose: 0.62 mg/kg/injection, schedule: Q01DX001 (ip), vehicle: carboxymethylcellulose (CMC)): 117 % of control | T/C (endpoint: mean survival time, dose: 5.0 mg/kg/injection, schedule: Q01DX001 (ip), vehicle: carboxymethylcellulose (CMC)): 123 % of control | T/C (endpoint: mean survival time, dose: 12.0 mg/kg/injection, schedule: Q01DX001 (ip), vehicle: saline): 121 % of control

CC(O)C(F)(F)C(F)(F)C(F)(F)C(C)O (stereo not drawn)
T/C [14]: 97 % of control | T/C [6]: 102 % of control | T/C (endpoint: mean survival time, dose: 200.0 mg/kg/injection, schedule: Q01DX009 (ip), vehicle: saline): 104 % of control | T/C [7]: 96 % of control | T/C [15]: 109 % of control | T/C [8]: 96 % of control

COc1cc(-c2cnc(N)nc2N)cc(OC)c1OC
T/C [11]: 97 % of control | T/C [12]: 103 % of control | T/C [13]: 95 % of control
